# Data: patent publication US20250041235A1, “FUNCTIONALIZED BIOLOGICAL MEMBRANES WITH MODIFYING PROTEIN MOLECULES, AND METHODS OF MAKING AND USES THEREOF” (McMaster University, priority 2021, published 2025)
# Tests used:
# E. coli = assay: Bacterial growth curves (OD600, 24 h) for E. coli; type: cell-based
# Procedure: Bacterial growth curves for E. coli for different concentrations of (free) PmB (MIC, 0.5 MIC, 0.25 MIC, and 0 MIC) are shown in FIG. 12 a). […] Absorbance at 600 nm (OD 600) was measured during a period of 24 h. […] Bacteria treated with 0.25 MIC behaved similarly. A lag phase was observed before the first exponential cycle after the addition of an intermediate concentration of 0.5 MIC, where exponential growth was delayed by ˜9 h. […] Growth curves for E. coli treated with varying concentrations of Erythro-PmBs containing MIC, 0.5 MIC, 0.25 MIC, and 0 MIC of PmB are shown in FIG. 12 b).
# K. aerogenes = assay: Bacterial growth curves (OD600, 24 h) for K. aerogenes; type: cell-based, Klebsiella aerogenes
# From the text: The lengths of the lag phase decreased monotonously with decreasing PmB concentration, similar to E. coli.
# Bacterial growth curves for K. aerogenes for different concentrations of (free) PmB (MIC, 0.5 MIC, 0.25 MIC, and 0 MIC) are shown in FIG. 13 a). […] Diauxic growth was less evident in the presence of free PmB: 0.25 MIC to MIC.
# red blood cells = assay: Hemolytic assay (hemoglobin release by UV absorption); type: cell-based; conditions: PmB concentrations from 0 MIC to MIC
# Procedure: 12% Triton X-100 was used as a total lysis control, and PBS was used as a negative control.
# Hemolysis was determined from hemoglobin release measured by UV absorption. Data are shown for free PmB and Erythro-PmBs at different PmB concentrations from 0 MIC to MIC. Values in the order of 0.03% were determined to be well below the benchmark hemolysis rate of 2% identified by the American Society of Clinical Pathology and were considered to be non-hemolytic. […] Hemolytic activity of the Erythro-PmBs was less than that of free PmB, less than 0.01%, and independent of PmB concentration (within experimental error).
substance,measurement,setting,value
polymyxin B [free PmB],delay of exponential growth (lag phase),E. coli; 0.5 MIC,~9 h
same,minimum inhibitory concentration (MIC),E. coli; OD600 over 24 h,0.63 µg/mL
same,growth at MIC,E. coli; PmB content at MIC (0.63 μg/mL),No growth
same,lag phase,K. aerogenes; 0.25 MIC,6 h
same,lag phase,K. aerogenes; 0.5 MIC,9 h
same,minimum inhibitory concentration (MIC),K. aerogenes; OD600 over 24 h,1.5 µg/mL
same,hemolysis,red blood cells,~0.03%
